Data on 19 compounds can be found in US7317028B2, “Cell differentiation inducer” (Schering Aktiengesellschaft, priority 1996, dated 2008).

The test system of one data set is A2780 cells. The data set is described as follows: Test for induction of differentiation in A2780 cells (ALP activity, ALPmin). Format: cell-based, human. The settings on record: for minimal effective concentration: Homo sapiens, 72 h, A2780 cells, 3 days incubation, minimum concentration of the drug inducing increase of ALP activity. The gist of the method: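 A2780 cells seeded at 15,000/well, test compound added in serial dilution the next day. ALP reaction stopped with 3N NaOH and absorbance read at 405 nm; ALPmin is the lowest concentration raising ALP activity.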

For data set [1], the system named is Murine myeloid leukemia cells WEHI-3. Briefly: Antitumor test, life prolongation in mice inoculated with WEHI-3 cells (T/C). Format: in vivo, Balb/C mouse. The settings on record: oral once a day Day 1 to 4 and Day 7 to 11, ratio of survival days to control. From the text: Murine myeloid leukemia cells WEHI-3 (1 to 3×10^6 cells) were intraperitoneally inoculated to a Balb/C mouse, and administration of a test compound was initiated on the next day. The day was Day 1 and subsequently the drug was orally administered once a day in Day 1 to 4 and in Day 7 to 11. Survival days after inoculation were observed, which were used to calculate the ratio of the survival days for the test coompound group to those for the control group (T/C, %). The ratio was used to evaluate a life prolongation effect.

What is called melting point is the temperature, or range, at which the solid turns liquid. By minimal effective concentration is commonly meant the smallest amount tested that counted as effective. Low values mean greater potency, high ones weaker potency. As a reminder, the T/C is the ratio of treated to control. For the compound `Nc1ccccc1NC(=O)c1ccc(CNC(=O)COc2cccnc2)cc1` [Example 46, N-(2-aminophenyl)-4-[N-(pyridin-3-yl)oxyacetylaminomethyl]benzamide], the melting point lay in the range of 154 to 155 °C. Further, in the data set with A2780 cells, the differentiation-inducing activity result is listed as “high” and the minimal effective concentration was determined as 0.1 µM. Also, the T/C in data set [1] (Dose 32 μmol/kg) stood at 141%.
As for `Nc1ccccc1NC(=O)c1ccc(CNC(=O)OCc2cccnc2)cc1` [Example 48, N-(2-aminophenyl)-4-[N-(pyridin-3-yl)methoxycarbonylaminomethyl]benzamide], in the data set with A2780 cells, the differentiation-inducing activity result was “high” and the minimal effective concentration was 0.1 µM. Besides, the T/C in data set [1] (Dose 130 μmol/kg) is on record as 190%.
`Nc1ccccc1NC(=O)c1ccc(NC(=O)CCC(=O)c2cccnc2)cc1` [Example 121, N-(2-aminophenyl)-4-[4-(pyridin-3-yl)-1,4-dioxobutylamino]benzamide] returned a melting point of 190 to 194 °C. The same compound showed a minimal effective concentration in the data set on A2780 cells of 3 µM.
Take `Nc1ccccc1NC(=O)c1ccc(NC(=O)CC(=O)Nc2cccnc2)cc1` [Example 122, N-(2-aminophenyl)-4-[3-[N-(pyridin-3-yl)amino]-1,3-dioxopropylamino]benzamide]: the melting point is 196 °C (dec.). In the data set with A2780 cells, this compound had a minimal effective concentration of 0.03 µM.
Turning to `Cc1cc(C(=O)Nc2ccccc2N)ccc1NC(=O)COCc1cccnc1` [Example 123, N-(2-aminophenyl)-4-[N-(pyridin-3-yl)methoxyacetylamino]-3-methylbenzamide], the melting point is 178 to 181 °C (dec.). This compound had a minimal effective concentration in the data set with A2780 cells of 3 µM.
As for `Nc1ccccc1NC(=O)c1ccc(NC(=O)COCc2ccsc2)cc1` [Example 124, N-(2-aminophenyl)-4-[N-(thiophen-3-yl)methoxyacetylamino]benzamide], the melting point lay within 186 to 189 °C. Further, the minimal effective concentration in the data set with A2780 cells stood at 3 µM.
For `CN(C(=O)COCc1cccnc1)c1ccc(C(=O)Nc2ccccc2N)cc1` [Example 125, N-(2-aminophenyl)-4-[N-methyl-N-(pyridin-3-yl)methoxyacetylamino]benzamide], in that order: 180 to 183 °C (dec.) and 0.1 µM.
On to `Nc1ccccc1NC(=O)c1ccc(NC(=O)COCc2ccccn2)cc1` [Example 126, N-(2-aminophenyl)-4-[N-(pyridin-2-yl)methoxyacetylamino]benzamide], for which the melting point was in the range of 171 to 173 °C. Moreover, in the data set on A2780 cells, the minimal effective concentration came out at 3 µM.
For `Nc1ccccc1NC(=O)c1ccc(NC(=O)CNC(=O)c2cccnc2)cc1` [Example 127, N-(2-aminophenyl)-4-[N-(N-nicotinoylamino)acetylamino]benzamide], in that order: 218 to 220 °C (dec.) and 0.3 µM.
The compound `CC(Oc1cccnc1)C(=O)Nc1ccc(C(=O)Nc2ccccc2N)cc1` (centres unmarked) [Example 129, N-(2-aminophenyl)-4-[N-[2-(pyridin-3-yl)oxypropionyl]amino]benzamide] displayed a melting point of 193 to 196 °C. This compound also returned a minimal effective concentration with A2780 cells of 1 µM.
For the compound `Nc1ccccc1NC(=O)c1ccc(NC(=O)COCc2cccnc2)cc1` [Example 130, N-(2-aminophenyl)-4-[(pyridin-3-yl)methoxyacetylamino]benzamide], the minimal effective concentration in the data set with A2780 cells worked out at 0.03 µM. In addition, the T/C in data set [1] (Dose 130 μmol/kg) is 189%.
For `CC(OCc1cccnc1)C(=O)Nc1ccc(C(=O)Nc2ccccc2N)cc1` (centres unmarked) [Example 131, N-(2-aminophenyl)-4-[N-[2-(pyridin-3-yl)methoxypropionyl]amino]benzamide], the melting point lay within 144 to 148 °C. The minimal effective concentration in the data set on A2780 cells stood at 0.3 µM.
As for `Nc1ccccc1NC(=O)c1ccc(C(=O)NCc2ccccc2)cc1` [Example 132, N-(2-aminophenyl)-4-(N-benzylamino)carbonylbenzamide], the melting point is 239 to 241 °C (dec.). The compound further came in with a minimal effective concentration in the data set with A2780 cells of 10 µM.
Take `Nc1ccccc1NC(=O)c1ccc(C(=O)NCCc2ccccc2)cc1` [Example 133, N-(2-aminophenyl)-4-[N-(2-phenylethyl)amino]carbonylbenzamide]: the melting point was 237 to 240 °C (dec.). In the data set on A2780 cells, this compound came in with a minimal effective concentration of 3 µM.
Take `Nc1ccccc1NC(=O)c1ccc(NC(=O)COc2ccc([N+](=O)[O-])cc2)cc1` [Example 134, N-(2-aminophenyl)-4-[N-(4-nitrophenoxyacetyl)amino]benzamide]: the melting point was 212 to 215 °C (dec.). Besides, the minimal effective concentration in the data set on A2780 cells came out at 3 µM.
For `Cl.Nc1ccccc1NC(=O)c1ccc(-n2cc(COCc3ccccc3)oc2=O)cc1` [Example 138, N-(2-aminophenyl)-4-(5-benzyloxymethyl-1,3-oxazolin-2-on-3-yl)benzamide hydrochloride], in that order: 181 to 183 °C and 1 µM.
On to `Nc1ccccc1NC(=O)c1ccc(-n2cc(COCc3cccnc3)oc2=O)cc1` [Example 140, N-(2-aminophenyl)-4-[5-(pyridin-3-yl)methyloxymethyl-1,3-oxazolin-2-on-3-yl]benzamide], for which the melting point was 160 to 164 °C (dec.). This compound also registered a minimal effective concentration in the data set with A2780 cells of 0.3 µM.
On to `Nc1ccccc1NC(=O)c1ccc(-n2cc(COc3cccc([N+](=O)[O-])c3)oc2=O)cc1` [Example 141, N-(2-aminophenyl)-4-[5-(3-nitrophenoxy)methyl-1,3-oxazolin-2-on-3-yl]benzamide], for which the melting point was 230 °C (dec.). The same compound had a minimal effective concentration in the data set with A2780 cells of 1 µM.
`Nc1ccccc1NC(=O)c1ccc(-n2cc(COCc3ccccn3)oc2=O)cc1` [Example 142, N-(2-aminophenyl)-4-[5-(pyridin-2-yl)methyloxymethyl-1,3-oxazolin-2-on-3-yl]benzamide] gave a melting point of 172 to 174 °C. The minimal effective concentration in the data set on A2780 cells came to 0.1 µM.
